Starred links: 1 amine or outer side, 2 acyl side, 3 side chain; linkers in the order of their positions; H or OH if unused. Positions of bridges follow the written chain, without caps; N, C: chain ends. Residues, ends and D or L forms follow the SMILES beside them. *: point of attachment. C18 diacid = O=C(O)CCCCCCCCCCCCCCCCC(=O)*; γGlu = O=C(O)[C@H](CCC(=O)[*:2])N[*:1]; AEEA = NCCOCCOCC(=O)O
Molecular target: T1, human natriuretic peptide receptor 2 (hNPR2) (Homo sapiens, UniProt P20594)
T1 construct: expressed in transfected cells; host or cells: HEK293 (ATCC CRL-1573), clone 35, co-transfected with pGloSensor-42F
T1 sequence (P20594 23-1047): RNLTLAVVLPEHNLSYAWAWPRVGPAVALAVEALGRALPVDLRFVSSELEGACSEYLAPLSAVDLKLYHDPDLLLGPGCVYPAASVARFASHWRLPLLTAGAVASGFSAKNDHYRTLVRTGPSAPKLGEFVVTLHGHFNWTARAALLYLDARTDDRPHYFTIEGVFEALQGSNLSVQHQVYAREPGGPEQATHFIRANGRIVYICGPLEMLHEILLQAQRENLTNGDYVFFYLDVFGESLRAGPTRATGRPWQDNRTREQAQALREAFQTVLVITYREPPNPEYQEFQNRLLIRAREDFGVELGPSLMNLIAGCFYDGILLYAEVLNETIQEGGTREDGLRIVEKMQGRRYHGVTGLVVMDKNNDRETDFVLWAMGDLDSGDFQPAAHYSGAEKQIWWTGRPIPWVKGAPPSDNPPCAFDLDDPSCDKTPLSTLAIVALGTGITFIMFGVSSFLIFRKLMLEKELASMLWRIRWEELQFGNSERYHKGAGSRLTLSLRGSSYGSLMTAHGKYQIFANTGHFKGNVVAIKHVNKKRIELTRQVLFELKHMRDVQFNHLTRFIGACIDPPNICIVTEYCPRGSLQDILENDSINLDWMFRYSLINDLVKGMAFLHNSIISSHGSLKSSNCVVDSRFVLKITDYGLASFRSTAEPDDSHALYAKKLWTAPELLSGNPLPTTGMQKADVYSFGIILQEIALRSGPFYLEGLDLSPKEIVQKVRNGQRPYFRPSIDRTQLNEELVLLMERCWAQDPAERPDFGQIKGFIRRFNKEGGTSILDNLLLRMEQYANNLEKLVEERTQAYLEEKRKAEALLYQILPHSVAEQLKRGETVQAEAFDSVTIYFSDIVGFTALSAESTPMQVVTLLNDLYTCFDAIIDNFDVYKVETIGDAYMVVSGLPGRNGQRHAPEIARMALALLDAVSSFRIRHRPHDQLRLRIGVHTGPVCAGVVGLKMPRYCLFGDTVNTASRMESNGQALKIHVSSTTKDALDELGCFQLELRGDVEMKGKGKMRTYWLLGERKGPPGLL
Test: In vitro hNPR2 activity assay (cGMP GloSensor reporter, HEK293)
Type: cell-based
Conditions: for EC50: 0% HSA, HEK293-hNPR2/GloSensor cells; for hNPR2 0% HSA. [EC50% rel CNP]: potency relative to CNP22 (0065)
Outline: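 Potency is the EC50 from a four-parameter logistic fit, also expressed relative to the in-plate CNP22 control (×100), with at least two replicates. Compounds (ten concentrations, […], HSA-free diluent with 1% OVA, 0.01% Tween20) were incubated 30 min at 37 °C on HEK293 cells co-expressing hNPR2 and a GloSensor cGMP luciferase. Luminescence detected with Bright-Glo.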

SMILES | EC50 | hNPR2 0% HSA. [EC50% rel CNP]
CC[C@H](C)[C@@H]1NC(=O)[C@H](CCCNC(=N)N)NC(=O)[C@H](CCC(=O)O)NC(=O)[C@H](CC(C)C)NC(=O)[C@H](CCCCN)NC(=O)[C@H](CC(C)C)NC(=O)CNC(=O)[C@H](Cc2ccccc2)NC(=O)[C@@H](NC(=O)CNC(=O)[C@H](CCCCN)NC(=O)[C@H](CO)NC(=O)[C@H](CC(C)C)NC(=O)CNC(=O)[C@H](CCCCN)NC(=O)[C@H](CCCCN)NC(=O)[C@H](CCC(N)=O)NC(=O)[C@H](C)NC(=O)CNC(=O)[C@H](CCCCN)NC(=O)[C@H](Cc2ccc(O)cc2)NC(=O)[C@H](CCCCN)NC(=O)[C@H](CCCNC(=N)N)NC(=O)[C@H](C)NC(=O)COCCOCCNC(=O)COCCOCCNC(=O)CC[C@H](NC(=O)CCCCCCCCCCCCCCCCC(=O)O)C(=O)O)CSSC[C@@H](C(=O)O)NC(=O)CNC(=O)[C@H](CC(C)C)NC(=O)CNC(=O)[C@H](CO)NC(=O)[C@H](CC(C)C)NC(=O)[C@H](CO)NC(=O)CNC1=O [compound 0776] ({C18 diacid-γGlu-AEEA-AEEA}-ARKYKGAQKKGLSKGCFGLKLERIGSLSGLGC-OH; disulfide 16-32) | 0.58 nM | 33.2%
CC[C@H](C)[C@@H]1NC(=O)[C@H](CCCNC(=N)N)NC(=O)[C@H](CC(=O)O)NC(=O)[C@H](CC(C)C)NC(=O)[C@@H]2CCCN2C(=O)[C@H](CC(C)C)NC(=O)CNC(=O)[C@H](Cc2ccccc2)NC(=O)[C@@H](NC(=O)CNC(=O)[C@H](CCCCN)NC(=O)[C@H](CO)NC(=O)[C@H](CC(C)C)NC(=O)CNC(=O)[C@H](CCCCN)NC(=O)[C@H](CCCCN)NC(=O)[C@H](CCC(N)=O)NC(=O)[C@H](C)NC(=O)CNC(=O)[C@H](CCC(=O)O)NC(=O)[C@H](Cc2ccc(O)cc2)NC(=O)COCCOCCNC(=O)COCCOCCNC(=O)CC[C@H](NC(=O)CCCCCCCCCCCCCCCCC(=O)O)C(=O)O)CSSC[C@@H](C(=O)O)NC(=O)CNC(=O)[C@H](CC(C)C)NC(=O)CNC(=O)[C@H](CO)NC(=O)[C@H](CC(C)C)NC(=O)[C@H](CO)NC(=O)CNC1=O [compound 1225] ({C18 diacid-γGlu-AEEA-AEEA}-YEGAQKKGLSKGCFGLPLDRIGSLSGLGC-OH; disulfide 13-29) | – | 29.4%
CC[C@H](C)[C@@H]1NC(=O)[C@H](CCCNC(=N)N)NC(=O)[C@H](CC(=O)O)NC(=O)[C@H](CC(C)C)NC(=O)[C@@H]2CCCN2C(=O)[C@H](CC(C)C)NC(=O)CNC(=O)[C@H](Cc2ccccc2)NC(=O)[C@@H](NC(=O)CNC(=O)[C@H](CO)NC(=O)[C@H](CO)NC(=O)[C@H](CC(C)C)NC(=O)CNC(=O)[C@H](CCCCN)NC(=O)[C@H](CCCCN)NC(=O)[C@H](CCC(N)=O)NC(=O)[C@H](C)NC(=O)CNC(=O)[C@H](CCC(=O)O)NC(=O)[C@H](Cc2ccc(O)cc2)NC(=O)COCCOCCNC(=O)COCCOCCNC(=O)CC[C@H](NC(=O)CCCCCCCCCCCCCCCCC(=O)O)C(=O)O)CSSC[C@@H](C(=O)O)NC(=O)CNC(=O)[C@H](CC(C)C)NC(=O)CNC(=O)[C@H](CO)NC(=O)[C@H](CC(C)C)NC(=O)[C@H](CO)NC(=O)CNC1=O [compound 1227] ({C18 diacid-γGlu-AEEA-AEEA}-YEGAQKKGLSSGCFGLPLDRIGSLSGLGC-OH; disulfide 13-29) | – | 38.2%
CC[C@H](C)[C@@H]1NC(=O)[C@H](CCCNC(=N)N)NC(=O)[C@H](CC(=O)O)NC(=O)[C@H](CC(C)C)NC(=O)[C@@H]2CCCN2C(=O)[C@H](CC(C)C)NC(=O)CNC(=O)[C@H](Cc2ccccc2)NC(=O)[C@@H](NC(=O)CNC(=O)[C@H](CO)NC(=O)[C@H](CO)NC(=O)[C@H](CC(C)C)NC(=O)CNC(=O)[C@H](CCCCN)NC(=O)[C@H](CCCCN)NC(=O)[C@H](CCC(N)=O)NC(=O)[C@H](C)NC(=O)CNC(=O)[C@H](CCCCN)NC(=O)[C@H](Cc2ccc(O)cc2)NC(=O)COCCOCCNC(=O)COCCOCCNC(=O)CC[C@H](NC(=O)CCCCCCCCCCCCCCCCC(=O)O)C(=O)O)CSSC[C@@H](C(=O)O)NC(=O)CNC(=O)[C@H](CC(C)C)NC(=O)CNC(=O)[C@H](CO)NC(=O)[C@H](CC(C)C)NC(=O)[C@H](CO)NC(=O)CNC1=O [compound 1233] ({C18 diacid-γGlu-AEEA-AEEA}-YKGAQKKGLSSGCFGLPLDRIGSLSGLGC-OH; disulfide 13-29) | – | 49.7%
CC[C@H](C)[C@@H]1NC(=O)[C@H](CCCNC(=N)N)NC(=O)[C@H](CC(=O)O)NC(=O)[C@H](CC(C)C)NC(=O)[C@H](CCCCN)NC(=O)[C@H](CC(C)C)NC(=O)CNC(=O)[C@H](Cc2ccccc2)NC(=O)[C@@H](NC(=O)CNC(=O)[C@H](CCCCN)NC(=O)[C@H](CO)NC(=O)[C@H](CC(C)C)NC(=O)CNC(=O)[C@H](CCCCN)NC(=O)[C@H](CCCCN)NC(=O)[C@H](CCC(N)=O)NC(=O)[C@H](C)NC(=O)CNC(=O)[C@H](Cc2c[nH]cn2)NC(=O)[C@H](CCC(=O)O)NC(=O)COCCOCCNC(=O)COCCOCCNC(=O)CC[C@H](NC(=O)CCCCCCCCCCCCCCCCC(=O)O)C(=O)O)CSSC[C@@H](C(=O)O)NC(=O)CNC(=O)[C@H](CC(C)C)NC(=O)CNC(=O)[C@H](CO)NC(=O)[C@H](CC(C)C)NC(=O)[C@H](CO)NC(=O)CNC1=O [compound 1235] | 1.17 nM | 27.2%
CC[C@H](C)[C@@H]1NC(=O)[C@H](CCCNC(=N)N)NC(=O)[C@H](CC(=O)O)NC(=O)[C@H](CC(C)C)NC(=O)[C@@H]2CCCN2C(=O)[C@H](CC(C)C)NC(=O)CNC(=O)[C@H](Cc2ccccc2)NC(=O)[C@@H](NC(=O)CNC(=O)[C@H](CO)NC(=O)[C@H](CO)NC(=O)[C@H](CC(C)C)NC(=O)CNC(=O)[C@H](CCCCN)NC(=O)[C@H](CCCCN)NC(=O)[C@H](CCC(N)=O)NC(=O)[C@H](C)NC(=O)CNC(=O)[C@H](Cc2c[nH]cn2)NC(=O)[C@H](Cc2ccc(O)cc2)NC(=O)COCCOCCNC(=O)COCCOCCNC(=O)CC[C@H](NC(=O)CCCCCCCCCCCCCCCCC(=O)O)C(=O)O)CSSC[C@@H](C(=O)O)NC(=O)CNC(=O)[C@H](CC(C)C)NC(=O)CNC(=O)[C@H](CO)NC(=O)[C@H](CC(C)C)NC(=O)[C@H](CO)NC(=O)CNC1=O [compound 1241] ({C18 diacid-γGlu-AEEA-AEEA}-YHGAQKKGLSSGCFGLPLDRIGSLSGLGC-OH; disulfide 13-29) | – | 30.5%
CC[C@H](C)[C@@H]1NC(=O)[C@H](CCCNC(=N)N)NC(=O)[C@H](CC(=O)O)NC(=O)[C@H](CC(C)C)NC(=O)[C@@H]2CCCN2C(=O)[C@H](CC(C)C)NC(=O)CNC(=O)[C@H](Cc2ccccc2)NC(=O)[C@@H](NC(=O)CNC(=O)[C@H](CO)NC(=O)[C@H](CO)NC(=O)[C@H](CC(C)C)NC(=O)CNC(=O)[C@H](CCCCN)NC(=O)[C@H](CCCCN)NC(=O)[C@H](CCC(N)=O)NC(=O)[C@H](C)NC(=O)CNC(=O)[C@H](CCCCN)NC(=O)[C@H](Cc2ccc(O)cc2)NC(=O)COCCOCCNC(=O)COCCOCCNC(=O)COCCOCCNC(=O)CC[C@H](NC(=O)CC[C@H](NC(=O)CCCCCCCCCCCCCCCCC(=O)O)C(=O)O)C(=O)O)CSSC[C@@H](C(=O)O)NC(=O)CNC(=O)[C@H](CC(C)C)NC(=O)CNC(=O)[C@H](CO)NC(=O)[C@H](CC(C)C)NC(=O)[C@H](CO)NC(=O)CNC1=O [compound 1356] ({C18 diacid-γGlu-γGlu-AEEA-AEEA-AEEA}-YKGAQKKGLSSGCFGLPLDRIGSLSGLGC-OH; disulfide 13-29; C-terminus assumed) | – | 22.4%

Source: patent US20240209028A1, “CNP COMPOUNDS” (priority 2022, published 2024)
